Data published in the NIST ThermoML archive (doi:10.1021/je201116t).
± gives the expanded uncertainty stated by the source.

What was measured:
[1] = 101 kPa, Liquid; for viscosity: Capillary tube (Ostwald / Ubbelohde) method
[2] = xn = mol fraction of the nth substance listed; settings: 101 kPa, Liquid, x1 = 1; for viscosity: Capillary tube (Ostwald / Ubbelohde) method

SMILES	mass density ([1]; 298.15 K)	viscosity ([1]; 298.15 K)	mass density ([1]; 303.15 K)	viscosity ([1]; 303.15 K)	mass density ([1]; 308.15 K)	viscosity ([1]; 308.15 K)	mass density ([1]; 313.15 K)	viscosity ([1]; 313.15 K)	viscosity ([2]; 298.15 K)	mass density ([2]; 298.15 K)	viscosity ([2]; 303.15 K)	mass density ([2]; 303.15 K)	viscosity ([2]; 308.15 K)	mass density ([2]; 308.15 K)	viscosity ([2]; 313.15 K)	mass density ([2]; 313.15 K)
CCC(=O)[O-].CC[NH+]1CCNCC1 [N-ethylpiperazinium propionate]	1008.36 ± 1.2 kg/m3	243.49 ± 7.6 mPa·s	1004.38 ± 1.2 kg/m3	164.81 ± 4.6 mPa·s	1000.33 ± 1.2 kg/m3	113.44 ± 2.7 mPa·s	996.237 ± 1.2 kg/m3	80.93 ± 1.8 mPa·s								
CCCCO [butan-1-ol]	805.814 ± 1.3 kg/m3	2.577 ± 0.032 mPa·s	801.996 ± 1.3 kg/m3	2.272 ± 0.029 mPa·s	798.13 ± 1.4 kg/m3	2.01 ± 0.025 mPa·s	794.226 ± 1.4 kg/m3	1.786 ± 0.023 mPa·s								
CCCCO [butan-1-ol] + CCC(=O)[O-].CC[NH+]1CCNCC1									2.577 ± 0.032 mPa·s	805.814 ± 1.3 kg/m3	2.272 ± 0.029 mPa·s	801.996 ± 1.3 kg/m3	2.01 ± 0.025 mPa·s	798.13 ± 1.4 kg/m3	1.786 ± 0.023 mPa·s	794.226 ± 1.4 kg/m3
CCO [ethanol]	785.499 ± 1.4 kg/m3	1.091 ± 0.013 mPa·s	781.197 ± 1.4 kg/m3	0.9986 ± 0.012 mPa·s	776.853 ± 1.4 kg/m3	0.9139 ± 0.011 mPa·s	772.468 ± 1.5 kg/m3	0.8387 ± 0.01 mPa·s								
CCO [ethanol] + CCC(=O)[O-].CC[NH+]1CCNCC1									1.091 ± 0.013 mPa·s	785.499 ± 1.4 kg/m3	0.9986 ± 0.012 mPa·s	781.197 ± 1.4 kg/m3	0.9139 ± 0.011 mPa·s	776.853 ± 1.4 kg/m3	0.8387 ± 0.01 mPa·s	772.468 ± 1.5 kg/m3
CO [methanol]	786.686 ± 1.4 kg/m3	0.558 ± 0.0068 mPa·s	781.993 ± 1.4 kg/m3	0.5261 ± 0.0065 mPa·s	777.249 ± 1.4 kg/m3	0.4966 ± 0.0061 mPa·s	772.475 ± 1.5 kg/m3	0.4702 ± 0.0058 mPa·s								
CO [methanol] + CCC(=O)[O-].CC[NH+]1CCNCC1									0.558 ± 0.0068 mPa·s	786.686 ± 1.4 kg/m3	0.5261 ± 0.0065 mPa·s	781.993 ± 1.4 kg/m3	0.4966 ± 0.0061 mPa·s	777.249 ± 1.4 kg/m3	0.4702 ± 0.0058 mPa·s	772.475 ± 1.5 kg/m3
CCCO [propan-1-ol]	799.557 ± 1.3 kg/m3	1.941 ± 0.024 mPa·s	795.543 ± 1.3 kg/m3	1.728 ± 0.021 mPa·s	791.479 ± 1.4 kg/m3	1.545 ± 0.019 mPa·s	787.371 ± 1.4 kg/m3	1.385 ± 0.017 mPa·s								
CCCO [propan-1-ol] + CCC(=O)[O-].CC[NH+]1CCNCC1									1.941 ± 0.024 mPa·s	799.557 ± 1.3 kg/m3	1.728 ± 0.021 mPa·s	795.543 ± 1.3 kg/m3	1.545 ± 0.019 mPa·s	791.479 ± 1.4 kg/m3	1.385 ± 0.017 mPa·s	787.371 ± 1.4 kg/m3
